Results as given in publication PMC7935272 (PLoS Pathogens, 2021).
Where “and” joins values, the source holds several entries; their conditions need not be identical. Equal values may be shown once. Entries after “also recorded” stand apart in the source; their conditions may differ.

Legend:
RSV L = RSV L (Human respiratory syncytial virus A, UniProt P28887); experiment: Biolayer interferometry, RSV L specificity control; format: binding; details: for steady-state BLI sensor response: S7 C
[1] = tested on: MeV L-P complexes L T776A; format: biochemical; details: primer extension, L T776A vs WT
WT MeV L-P complexes = WT MeV L-P complexes (Measles virus, UniProt Q9WMB3); experiment: Primer extension RdRP assay, GTP only (first nucleotide), L WT; format: biochemical; details: 5 h, read-out: first nucleotide incorporation signal (FIG 4D densitometry, first row = 100)
[2] = tested on: MeV mRNA transcripts (P, H, L); experiment: qRT-PCR of MeV primary transcription in infected Vero-hSLAM cells; format: cell-based; details: for Transcription gradient, H mRNA, Predicted (LS) mean 2 / Transcription gradient, L mRNA, Predicted (LS) mean 2 / Transcription gradient, P mRNA, Predicted (LS) mean 2: Figure 3I, N2 3
Description: Total RNA was extracted four hours after infection using Trizol and subjected to reverse transcription using either oligo-dT primers. Subsequent qPCR used primer pairs specific for MeV P mRNA, MeV H mRNA, MeV L mRNA, or human GAPDH mRNA, respectively. qPCR was performed using an Applied Biosystems 7500 Real-Time PCR System with a StepOnePlus Real-Time PCR System. Samples were normalized for GAPDH.

[3] = cited from earlier work
MeV = experiment: Antiviral dose-response assay, MeV-NanoPEST reporter virus in Vero-hSLAM cells

Cn1nc(C(F)(F)F)cc1C(=O)Nc1ccc(S(=O)(=O)N2CCCC[C@H]2CCN2CCOCC2)cc1 [ERDRP-0519, S(=O)(=O)(N1[C@H](CCN2CCOCC2)CCCC1)c1ccc(NC(=O)c2n(C)nc(C(F)(F)F)c2)cc1]
binding to RSV polymerase (RSV L; BLI specificity control): No appreciable binding; also recorded: no binding was detected
steady-state BLI sensor response (RSV L; 0.003 uM): 0.004459
steady-state BLI sensor response (RSV L; 0.009 uM): 0.00801
steady-state BLI sensor response (RSV L; 0.027 uM): 0.008695
steady-state BLI sensor response (RSV L; 0.24 uM): 0.01534
steady-state BLI sensor response (RSV L; 0.74 uM): 0.01342
steady-state BLI sensor response (RSV L; 2.22 uM): 0.007742
steady-state BLI sensor response (RSV L; 6.67 uM): 0.01053
steady-state BLI sensor response (RSV L; 20 uM): 0.00593
IC50 increase [1]: 2.5 fold
remaining activity at 0.0152416 µM (WT MeV L-P complexes; 0.0152416 µM): 92.5%
remaining activity at 0.0457247 µM (WT MeV L-P complexes; 0.0457247 µM): 96.8%
remaining activity at 0.137174 µM (WT MeV L-P complexes; 0.137174 µM): 64.3%
remaining activity at 0.411523 µM (WT MeV L-P complexes; 0.411523 µM): 40.5%
remaining activity at 1.23457 µM (WT MeV L-P complexes; 1.23457 µM): 30.4%
remaining activity at 3.7037 µM (WT MeV L-P complexes; 3.7037 µM): 30%
remaining activity at 11.1111 µM (WT MeV L-P complexes; 11.1111 µM): 27.6%
remaining activity at 33.3333 µM (WT MeV L-P complexes; 33.3333 µM): 26%
MeV P mRNA levels ([2]; 0.2 μM or 0.8 μM, 4 hours after infection, recMeV-Anc MOI 3): significantly decreased; also recorded: dose-dependently reduced
Transcription gradient, H mRNA, Predicted (LS) mean 2 ([2]; 0.2 µM): 0.1422
Transcription gradient, L mRNA, Predicted (LS) mean 2 ([2]; 0.2 µM): 0.005639
Transcription gradient, P mRNA, Predicted (LS) mean 2 ([2]; 0.2 µM): 1.063
Transcription gradient, H mRNA, Predicted (LS) mean 2 ([2]; 0.8 µM): 0.1249
Transcription gradient, L mRNA, Predicted (LS) mean 2 ([2]; 0.8 µM): 0.007941
Transcription gradient, P mRNA, Predicted (LS) mean 2 ([2]; 0.8 µM): 1.011
CC50 [3]: 75 µM
EC50 (MeV): 0.2 µM
MeV inhibition, normalized reporter signal (Figure 5B) (MeV; cpd concentration 0.009145): 105.005 and 86.0196
MeV inhibition, normalized reporter signal (Figure 5B) (MeV; cpd concentration 0.027435): 126.572 and 81.3143
MeV inhibition, normalized reporter signal (Figure 5B) (MeV; cpd concentration 0.082305): 101.803 and 75.4494
MeV inhibition, normalized reporter signal (Figure 5B) (MeV; cpd concentration 0.246914): 43.9689 and 25.1431
MeV inhibition, normalized reporter signal (Figure 5B) (MeV; cpd concentration 0.740741): 3.4563 and 3.061
MeV inhibition, normalized reporter signal (Figure 5B) (MeV; cpd concentration 2.22222): 0.8619 and 1.175
MeV inhibition, normalized reporter signal (Figure 5B) (MeV; cpd concentration 6.66667): 0.4673 and 0.8278
